Results taken from patent publication US4880807A, “Nicotinoylpiperazines useful for treatment of convulsions” (Institut De Recherches Chimiques et Biologiques Appliquees …, priority 1987, dated 1989).
Read-outs that look alike come from different tables or passages of the source.

Tests used:
[1] = oral toxicity in mice (LD50, mortality over 14 days); conditions: mouse, in vivo, po
Description: (§1) The toxicity of the products to be studied was investigated by the oral administration, using an esophageal tube, of each of the said products to male mice with a body weight of 18 to 22 g, divided into groups each containing 10 to 20 animals. The mortality was recorded over a 14-day period.

[2] = system: convulsions induced by pentetrazole; assay: animal or person; conditions: for ED50: Mus musculus, read-out: ED50 in respect of convulsions induced by PTZ, per os, male mice, 30 min after administration, pentetrazole 125 mg/kg i.p., dose protecting 50% of animals; for ED50 / ED50 in respect of convulsions induced by PTZ: 0.5 h; for therapeutic indices compared with reference products: in words, PTZ and MCE, reference: sodium valproate and trimethadione
Excerpt: (§2) The anticonvulsant properties were investigated on male mice, thirty minutes after the oral administration of the substances to be studied, by the induction of convulsive seizures.

[3] = system: convulsions induced by supra maximal electroshock (MCE); assay: animal or person; conditions: for ED50: Mus musculus, read-out: ED50 in respect of convulsions induced by MCE, per os, male mice, 30 min after administration, electrical stimulation of the cornea, dose protecting 50% of animals; for ED50 / ED50 in respect of convulsions induced by MCE: 0.5 h
Description: as §2
These seizures are caused either by the intraperitoneal injection of pentetrazole (125 mg/kg) or by electrical stimulation of the cornea (supra maximal electroshock, abbreviated to MCE).

in vivo = assay type: in vivo; conditions: mouse, po, per os, male mice, Rota-rod 30 min after administration, dose causing 50% of animals to fall, read-out: TD50 (50% neurotoxic dose)
Excerpt: (§3) The animals (divided into groups each containing ten male mice per dose and per product) are installed on the rod and their fall is observed over the next two minutes.

male mice [4] = assay: in vivo; assay type: in vivo; conditions: for TD50 (50% neurotoxic dose): per os, male mice, Rota-rod 30 min after administration, dose causing 50% of animals to fall, 30 min
Excerpt: as §3

male mice [5] = assay: oral toxicity in mice (LD50, mortality over 14 days); conditions: male mice
Description: as §1

[6] = LD50, oral (esophageal tube), male mice, groups of 10 to 20, 14 days, Table II
[7] = LD50, per os, male mice, repeated in Table IV
[8] = LD50 per os/ED50 per os, PTZ convulsions
[9] = LD50 per os/ED50 per os, MCE convulsions
[10] = TD50 per os/ED50 per os, MCE convulsions
[11] = TD50 per os/ED50 per os, PTZ convulsions
[12] = oral (esophageal tube), groups of 10 to 20, 14 days, Table II
[13] = per os, repeated in Table IV, 20160 min

| SMILES | LD50 at 336 h [1, 6] | Therapeutic index PTZ (LD50/ED50) [2, 8] | ED50 ([2]; po) | Therapeutic index MCE (LD50/ED50) [3, 9] | ED50 ([3]; po) | ED50 in respect of convulsions induced by PTZ ([2]; po) | ED50 in respect of convulsions induced by MCE ([3]; po) | also measured |
| --- | --- | --- | --- | --- | --- | --- | --- | --- |
| Cl.Cl.O=C(c1cccnc1)N1CCN(c2cccc(C(F)(F)F)c2)CC1 [Ex. 1, 1-nicotinoyl-4-(3-trifluoromethylphenyl)piperazine dihydrochloride] | 575 mg/kg | 33.8 | 17 mg/kg | 30.2 | 19 mg/kg | – | – | LD50 at 336 h [1, 7]: 575 mg/kg; therapeutic indices compared with reference products [2]: better than those of the reference products; TD50 at 0.5 h (in vivo; rota-rod): 154 mg/kg; Protection index MCE (TD50/ED50) (male mice [4]; [10]): 8.1; Protection index PTZ (TD50/ED50) (male mice [4]; [11]): 9.1; protection indices compared with reference products (male mice [4]; mouse, in vivo): better than those of the reference products |
| O=C(c1cccnc1)N1CCN(c2cccc(Cl)c2)CC1 [Ex. 2, 4-(3-chlorophenyl)-1-nicotinoylpiperazine] | 501 mg/kg | – | 50 mg/kg | – | 78 mg/kg | – | – | – |
| Cc1cccc(N2CCN(C(=O)c3cccnc3)CC2)c1C [Ex. 3] | > 1000 mg/kg | – | 110 mg/kg | – | > 200 mg/kg | – | – | – |
| O=C(c1cccnc1)N1CCN(c2ccccc2Cl)CC1 [Ex. 4] | > 1000 mg/kg | – | 160 mg/kg | – | 200 mg/kg | – | – | – |
| CCOc1ccccc1N1CCN(C(=O)c2cccnc2)CC1 [Ex. 5] | 1000 mg/kg | – | > 200 mg/kg | – | > 200 mg/kg | – | – | – |
| O=C(c1cccnc1)N1CCN(c2cccc(C(F)(F)F)c2)CC1 [Ex. 6, 1-nicotinoyl-4-(3-trifluoromethylphenyl)piperazine] | 422 mg/kg | 32.5 | 13 mg/kg | 21.1 | 20 mg/kg | – | – | LD50 at 336 h [1, 7]: 422 mg/kg; therapeutic indices compared with reference products [2]: better than those of the reference products; TD50 at 0.5 h (in vivo; rota-rod): 119 mg/kg; Protection index MCE (TD50/ED50) (male mice [4]; [10]): 6.0; Protection index PTZ (TD50/ED50) (male mice [4]; [11]): 9.1; protection indices compared with reference products (male mice [4]; mouse, in vivo): better than those of the reference products |
| O=C(c1cccnc1)N1CCN(c2ccc(C(F)(F)F)cc2)CC1 [Ex. 7] | > 1000 mg/kg | – | > 200 mg/kg | – | > 200 mg/kg | – | – | – |
| O=C(c1cccnc1)N1CCN(c2ccccc2F)CC1 [Ex. 8] | 1000 mg/kg | 5.6 | 180 mg/kg | 5.6 | 180 mg/kg | – | – | LD50 at 336 h [1, 7]: 1000 mg/kg; TD50 at 0.5 h (in vivo; rota-rod): 500 mg/kg; Protection index MCE (TD50/ED50) (male mice [4]; mouse, in vivo, po): 2.8; Protection index PTZ (TD50/ED50) (male mice [4]; mouse, in vivo, po): 2.8 |
| O=C(c1cccnc1)N1CCN(c2ccccc2F)CC1 [Ex. 9] | – | – | – | – | – | > 200 mg/kg | > 200 mg/kg | LD50 (male mice [5]; [12]): > 1000 mg/kg |
| O=C(c1cccnc1)N1CCN(c2ccc(F)cc2)CC1 [Ex. 10, 4-(4-fluorophenyl)-1-nicotinoylpiperazine] | 600 mg/kg | – | 62 mg/kg | – | 75 mg/kg | – | – | – |
| O=C(c1cccnc1)N1CCN(c2ccc(F)cc2)CC1 [Ex. 11, 4-(4-fluorophenyl)-1-nicotinoylpiperazine] | – | – | – | – | – | 68 mg/kg | 75 mg/kg | LD50 at 336 h [1]: 625 mg/kg |
| O=C(c1cccnc1)N1CCN(c2ccccc2C(F)(F)F)CC1 [Ex. 12] | > 1000 mg/kg | – | > 200 mg/kg | – | > 200 mg/kg | – | – | – |
| Cc1ccccc1N1CCN(C(=O)c2cccnc2)CC1 [Ex. 13] | – | 6.2 | 161 mg/kg | 5.0 | 200 mg/kg | – | – | LD50 at 336 h [1]: 1000 mg/kg; TD50 at 0.5 h (in vivo; in vivo): 800 mg/kg; Protection index MCE (TD50/ED50) (male mice [4]; [10]): 4.0; Protection index PTZ (TD50/ED50) (male mice [4]; [11]): 4.9 |
| Cc1ccccc1N1CCN(C(=O)c2cccnc2)CC1 [Ex. 14] | > 1000 mg/kg | – | – | – | – | 107 mg/kg | > 200 mg/kg | LD50 at 336 h [1, 7]: > 1000 mg/kg; Therapeutic index PTZ (LD50/ED50) ([2]; mouse, in vivo, po): > 10.0; Therapeutic index MCE (LD50/ED50) ([3]; mouse, in vivo, po): < 5.0; TD50 at 0.5 h (in vivo; rota-rod): 635 mg/kg; Protection index MCE (TD50/ED50) (male mice [4]; mouse, in vivo, po): < 3.0; Protection index PTZ (TD50/ED50) (male mice [4]; mouse, in vivo, po): 5.9 |
| COc1cccc(N2CCN(C(=O)c3cccnc3)CC2)c1 [Ex. 15] | > 1000 mg/kg | – | 183 mg/kg | – | > 200 mg/kg | – | – | – |
| COc1ccc(N2CCN(C(=O)c3cccnc3)CC2)cc1 [Ex. 16] | > 1000 mg/kg | – | 120 mg/kg | – | > 200 mg/kg | – | – | – |
| COc1ccc(N2CCN(C(=O)c3cccnc3)CC2)cc1 [Ex. 17] | – | – | – | – | – | 200 mg/kg | > 200 mg/kg | LD50 (male mice [5]; [12]): > 1000 mg/kg |
| CCOc1cccc(N2CCN(C(=O)c3cccnc3)CC2)c1 [Ex. 18] | 540 mg/kg | 7.5 | 72 mg/kg | 4.6 | 118 mg/kg | – | – | LD50 at 336 h [1, 7]: 540 mg/kg; TD50 at 0.5 h (in vivo; rota-rod): 291 mg/kg; Protection index MCE (TD50/ED50) (male mice [4]; mouse, in vivo, po): 2.5; Protection index PTZ (TD50/ED50) (male mice [4]; mouse, in vivo, po): 4.0 |
| CCOc1cccc(N2CCN(C(=O)c3cccnc3)CC2)c1 [Ex. 19] | – | – | – | 6.7 | – | 142 mg/kg | 150 mg/kg | Therapeutic index PTZ (LD50/ED50) ([2]; mouse, in vivo, po): 7.0; Protection index MCE (TD50/ED50) (male mice [4]; mouse, in vivo, po): 1.7; Protection index PTZ (TD50/ED50) (male mice [4]; mouse, in vivo, po): 1.8; TD50 (50% neurotoxic dose) (male mice [4]): 250 mg/kg |
| CC(=O)c1ccc(N2CCN(C(=O)c3cccnc3)CC2)cc1 [Ex. 20] | > 1000 mg/kg | – | > 200 mg/kg | – | > 200 mg/kg | – | – | – |
| Cc1cc(Cl)ccc1N1CCN(C(=O)c2cccnc2)CC1 [Ex. 22, 4-(4-chloro-2-methylphenyl)-1-nicotinoylpiperazine] | 540 mg/kg | 9.8 | – | 6.2 | – | 55 mg/kg | 87 mg/kg | LD50 at 336 h [1, 7]: 540 mg/kg; Protection index MCE (TD50/ED50) (male mice [4]; [10]): 3.4; Protection index PTZ (TD50/ED50) (male mice [4]; [11]): 5.4; TD50 (50% neurotoxic dose) (male mice [4]): 300 mg/kg |
| Cc1cc(Cl)ccc1N1CCN(C(=O)c2cccnc2)CC1 [Ex. 23, 4-(4-chloro-2-methylphenyl)-1-nicotinoylpiperazine] | – | > 8.1 | – | < 5.0 | – | 124 mg/kg | > 200 mg/kg | LD50 (male mice [5]; [12]): > 1000 mg/kg; LD50 (male mice [5]; [13]): > 1000 mg/kg; Protection index MCE (TD50/ED50) (male mice [4]; [10]): 4.5; Protection index PTZ (TD50/ED50) (male mice [4]; [11]): 7.4; TD50 (50% neurotoxic dose) (male mice [4]): 650 mg/kg |
| Cc1ccc(Cl)cc1N1CCN(C(=O)c2cccnc2)CC1 [Ex. 24, 4-(5-chloro-2-methylphenyl)-1-nicotinoylpiperazine] | > 1000 mg/kg | > 15.9 | 63 mg/kg | > 12.0 | 83 mg/kg | – | – | LD50 at 336 h [1, 7]: > 1000 mg/kg; TD50 at 0.5 h (in vivo; rota-rod): 525 mg/kg; Protection index MCE (TD50/ED50) (male mice [4]; [10]): 6.3; Protection index PTZ (TD50/ED50) (male mice [4]; [11]): 8.3 |
| Cc1ccc(Cl)cc1N1CCN(C(=O)c2cccnc2)CC1 [Ex. 25, 4-(5-chloro-2-methylphenyl)-1-nicotinoylpiperazine] | – | > 12.7 | – | > 11.5 | – | 79 mg/kg | 87 mg/kg | LD50 (male mice [5]; [12]): > 1000 mg/kg; LD50 (male mice [5]; [13]): > 1000 mg/kg; Protection index MCE (TD50/ED50) (male mice [4]; [10]): 4.1; Protection index PTZ (TD50/ED50) (male mice [4]; [11]): 4.5; TD50 (50% neurotoxic dose) (male mice [4]): 355 mg/kg |
| Cc1cccc(Cl)c1N1CCN(C(=O)c2cccnc2)CC1 [Ex. 26] | > 1000 mg/kg | – | > 200 mg/kg | – | > 200 mg/kg | – | – | – |
| O=C(c1cccnc1)N1CCN(c2ccccc2)CC1 [Ex. 27] | > 1000 mg/kg | – | 156 mg/kg | – | > 200 mg/kg | – | – | – |
| O=C(c1cccnc1)N1CCN(c2ccccc2)CC1 [Ex. 28] | – | – | – | – | – | > 200 mg/kg | > 200 mg/kg | LD50 (male mice [5]; [12]): > 1000 mg/kg |
| Cc1cccc(C)c1N1CCN(C(=O)c2cccnc2)CC1 [Ex. 30] | > 1000 mg/kg | – | 138 mg/kg | – | – | – | – | – |
| CN1C(=O)OC(C)(C)C1=O [TRIM, trimethadione, reference compound] | – | 8.7 | 251 mg/kg | 4.4 | 500 mg/kg | – | – | LD50 at 336 h [1]: 2180 mg/kg; LD50 at 336 h [1, 7]: 2180 mg/kg; TD50 at 0.5 h (in vivo; in vivo): 1000 mg/kg; Protection index MCE (TD50/ED50) (male mice [4]; mouse, in vivo, po): 2.0; Protection index PTZ (TD50/ED50) (male mice [4]; mouse, in vivo, po): 4.0 |
